Measured values taken from patent publication US20090270407A1, “FUNGICIDAL ISOXAZOLIDINES” (E. I. DU PONT DE NEMOURS AND COMPANY, priority 2008, published 2009).
Read-outs that look alike come from different tables or passages of the source. Marks after values point to notes of the source that are not given here.

Columns and labels:
Settings in all cases: 100 = 100 % disease control, 0 = no disease control relative to controls
Alternaria solani = test: Test F: tomato early blight, preventive spray on tomato seedlings, visual disease rating
Source text: (§1) General protocol for preparing test suspensions for Tests A-I: The test compounds were first dissolved in acetone in an amount equal to 3% of the final volume and then suspended at the desired concentration (in ppm) in acetone and purified water (50/50 mix) containing 250 ppm of the surfactant Trem® 014 (polyhydric alcohol esters). The resulting test suspensions were then used in Tests A-I. Spraying a 200 ppm test suspension to the point of run-off on the test plants was the equivalent of a rate of 500 g/ha. (An asterisk “*” next to the rating value indicates a 40 ppm test suspension.)
The test suspension was sprayed to the point of run-off on tomato seedlings. The following day the seedlings were inoculated with a spore suspension of Alternaria solani (the causal agent of tomato early blight) and incubated in a saturated atmosphere at 27° C. for 48 h, and then moved to a growth chamber at 20° C. for 5 days, after which time visual disease ratings were made.
(§2) A dash (−) indicates no test results. All results are for 200 ppm except where followed by “*” which indicates 40 ppm.

[1] = test system: Puccinia recondita f. sp. tritici; test: Test B: wheat leaf rust, preventive spray on wheat seedlings, visual disease rating
Septoria nodorum = test: Test C: wheat glume blotch, preventive spray on wheat seedlings, visual disease rating
Rhizoctonia oryzae = test: Test G: turf brown patch, preventive spray on creeping bent grass seedlings, visual disease rating
Description: The test suspension was sprayed to the point of run-off on creeping bent grass seedlings. The following day the seedlings were inoculated with a spore suspension of Rhizoctonia oryzae (the causal agent of turf brown patch) and incubated in a saturated atmosphere at 27° C. for 48 h, and then moved to a growth chamber at 27° C. for 3 days, after which time visual disease ratings were made.
as §2

[2] = test system: Erysiphe graminis f. sp. tritici; test: Test A: wheat powdery mildew, preventive spray on wheat seedlings, visual disease rating
Source text: as §1
The test suspension was sprayed to the point of run-off on wheat seedlings. The following day the seedlings were inoculated with a spore dust of Erysiphe graminis f. sp. tritici (the causal agent of wheat powdery mildew) and incubated in a growth chamber at 20° C. for 8 days, after which time visual disease ratings were made.

Plasmopara viticola = test: Test I: grape downy mildew, spray on grape seedlings after inoculation, visual disease rating
Source text: as §1
Grape seedlings were inoculated with a spore suspension of Plasmopara viticola (the causal agent of grape downy mildew) and incubated in a saturated atmosphere at 20° C. for 24 h. After a short drying period, the test suspension was sprayed to the point of run-off on the grape seedlings and then moved to a growth chamber at 20° C. for 6 days, after which time the test units were placed back into a saturated atmosphere at 20° C. for 24 h. Upon removal, visual disease ratings were made.
All results are for 200 ppm except where followed by “*” which indicates 40 ppm.

Botrytis cinerea = test: Test E: tomato Botrytis, preventive spray on tomato seedlings, visual disease rating
Phytophthora infestans = format: in vivo
Septoria tritici = test: Test D: wheat leaf blotch, preventive spray on wheat seedlings, visual disease rating; format: in vivo
Source text: A dash (−) indicates no test results.

SMILES | Test F disease control rating (Alternaria solani; 200 ppm) [%] | Test B disease control rating ([1]; 200 ppm) [%] | Test C disease control rating (Septoria nodorum; 200 ppm) [%] | Test G disease control rating (Rhizoctonia oryzae; 200 ppm) [%] | Test A disease control rating ([2]; 200 ppm) [%] | Test I disease control rating (Plasmopara viticola; 200 ppm) [%] | Test E disease control rating (Botrytis cinerea; 200 ppm) [%] | Test H disease control rating (Phytophthora infestans; 200 ppm) [%] | Test F disease control rating (Alternaria solani; 40 ppm (marked *)) | Test D disease control rating (Septoria tritici; 40 ppm (marked *)) | Test B disease control rating ([1]; 40 ppm (marked *)) | Test C disease control rating (Septoria nodorum; 40 ppm (marked *)) | Test G disease control rating (Rhizoctonia oryzae; 40 ppm (marked *)) | Test A disease control rating ([2]; 40 ppm (marked *)) | Test I disease control rating (Plasmopara viticola; 40 ppm (marked *)) | Test E disease control rating (Botrytis cinerea; 40 ppm (marked *)) | Test H disease control rating (Phytophthora infestans; 40 ppm (marked *)) | Test D disease control rating (Septoria tritici; 200 ppm) [%]
CN1OC(C)(c2cccnc2)CC1c1ccc(Br)cc1 (racemic) [Compound 4] | 0 | 32 | 100 | 0 | 90 | 0 | 80 | 0 | – | – | – | – | – | – | – | – | – | –
CN1OC(C)(c2cccnc2)CC1c1ccc(C(C)(C)C)cc1 (racemic) [Compound 7] | 40 | 34 | 69 | 0 | 99 | 0 | 99 | 0 | – | – | – | – | – | – | – | – | – | –
CN1OC(C)(c2cccnc2)CC1c1ccc(C(C)(C)C)cc1 (racemic) [Compound 8] | 0 | 69 | 40 | 0 | 99 | 0 | 56 | 0 | – | – | – | – | – | – | – | – | – | –
CN1OC(C)(c2cccnc2)CC1c1ccc(Oc2ccccc2)cc1 (racemic) [Compound 9] | 78 | 82 | 95 | 0 | 99 | 0 | 99 | 17 | – | – | – | – | – | – | – | – | – | –
CN1OC(C)(c2cccnc2)CC1c1ccc(Oc2ccccc2)cc1 (racemic) [Compound 10] | 0 | 82 | 98 | 0 | 93 | 0 | 98 | 0 | – | – | – | – | – | – | – | – | – | –
CN1OC(C)(c2cccnc2)CC1c1ccc(-c2ccccc2)cc1 (racemic) [Compound 11] | 26 | 91 | 97 | 0 | 99 | 0 | 99 | 0 | – | – | – | – | – | – | – | – | – | –
CN1OC(C)(c2cccnc2)CC1c1ccc(-c2ccccc2)cc1 (racemic) [Compound 12] | 0 | 74 | 82 | 0 | 99 | 0 | 29 | 0 | – | – | – | – | – | – | – | – | – | –
CN1OC(C)(c2cccnc2)CC1c1ccc(-c2ccc(OC(F)(F)F)cc2)cc1 (racemic) [Compound 18] | – | – | – | – | – | – | – | – | 7* % | 58* % | 0* % | 0* % | 0* % | 0* % | 0* % | 0* % | 0* % | –
CN1OC(C)(c2cccnc2)CC1c1ccc(Oc2ccc(F)cc2)cc1 (racemic) [Compound 19] | 7 | 91 | 99 | 0 | 98 | 0 | 98 | 0 | – | – | – | – | – | – | – | – | – | 98
CN1OC(C)(c2cccnc2)CC1c1ccc(Oc2ccc(F)cc2)cc1 (racemic) [Compound 20] | 0 | 92 | 78 | 0 | 91 | 0 | 0 | 0 | – | – | – | – | – | – | – | – | – | 92
CN1OC(c2cccnc2)(C(F)(F)F)CC1c1ccc(-c2ccccc2)cc1 (racemic) [Compound 23] | 4 | 0 | 97 | 0 | 99 | 0 | 0 | 0 | – | – | – | – | – | – | – | – | – | 98
CN1OC(c2cccnc2)(C(F)(F)F)CC1c1ccc(-c2ccccc2)cc1 (racemic) [Compound 24] | 0 | 45 | 0 | 0 | 99 | 0 | 0 | 0 | – | – | – | – | – | – | – | – | – | 100
CN1O[C@](C)(c2cccnc2)C[C@@H]1c1ccc(Cl)cc1 (relative stereo) [Compound 1, rel-3-[(3R,5S)-3-(4-chlorophenyl)-2,5-dimethyl-5-isoxazolidinyl]pyridine] | 0 | 0 | 100 | 0 | 97 | 0 | 83 | 0 | – | – | – | – | – | – | – | – | – | –
CN1O[C@@](C)(c2cccnc2)C[C@@H]1c1ccc(Cl)cc1 (relative stereo) [Compound 2, rel-3-[(3R,5R)-3-(4-chlorophenyl)-2,5-dimethyl-5-isoxazolidinyl]pyridine] | 0 | 0 | 99 | 0 | 72 | 17 | 0 | 0 | – | – | – | – | – | – | – | – | – | –
CN1OC(C)(c2cccnc2)CC1c1ccc(Cl)c(Cl)c1 (stereo not drawn) [Compound 5] | 51 | 0 | 0 | 0 | 98 | 0 | 91 | 0 | – | – | – | – | – | – | – | – | – | –
CN1OC(C)(c2cccnc2)CC1c1ccc(Cl)c(Cl)c1 (stereo not drawn) [Compound 6] | 0 | 0 | 0 | 0 | 99 | 17 | 0 | 0 | – | – | – | – | – | – | – | – | – | –
CN1OC(C)(c2cccnc2)CC1c1ccc(-n2cccn2)cc1 (stereo not drawn) [Compound 34] | – | – | – | – | – | – | – | – | 6* % | 88* % | 0* % | 99* % | – | 98* % | 0* % | 56* % | 0* % | –
